From US8679766B2, “E-cadherin as a biomarker of gastroesophageal reflux disease” (The University of North Carolina at Chapel Hill, priority 2009, dated 2014)
“Also recorded” adds a separate entry of the source. Where two headings read alike, the source gives them in different places.

What was measured:
[1] = system: rabbit EE; assay: Barrier breaker search: rabbit EE in U-chambers, monitoring RT (marker of PCP) and Isc; assay type: cell-based
Description: Agents that increase paracellular permeability (PCP) in EE are potential contributors to GERD by enabling diffusion of luminal acid into the intercellular space. Therefore, substances were sought within the refluxate, meals and inflammation that could ‘break the barrier’. This was done by exposing rabbit EE in U-chambers to candidate inflammatory agents while both monitoring RT, as a marker of PCP, and Isc (short circuit current), as a marker of active transport. The inflammatory agents were selected based on presence in EE or on reports that they can break the barrier in other epithelia (47-60).

[2] = system: rabbit EE; details: cited from earlier work
[3] = system: rabbit EE; assay: Ca++-switch technique: junctional opening and resealing (RT) in EE; assay type: cell-based
Description: Below the TJ is the adherens junction (AJ), a structure that encircles the cell and initiates and stabilizes cell-cell adhesion, and by doing so, the AJ supports the barrier function of the TJ (36, 37). The single-pass, transmembrane protein of the AJ is the Ca^++-dependent E-cadherin (E-cad) and this connects directly to a group of catenins (α-catenin, β-catenin, p120-catenin), which in turn connect E-cad to the cytoskeleton via α-catenin's interaction with actin microfilaments, to the microtubules via p120-catenin's interaction with PLEKHA7/nezha and tubulins (38, 39), and to the TJ via p120-catenin's binding to ZO-136. Cell-cell adhesion by E-cad results from the Ca^++-dependent, homotypic, association between the extracellular domains of neighboring cells. Indeed, the Ca^++ sensitivity is so characteristic that it forms the basis of the ‘Ca^++-switch technique’ where Ca^++ removal from both bathing solutions results in junctional opening (decline in RT) and its restoration results in ‘resealing’ (recovery of RT) (40). This method was used to define the role of E-cad in junctional adhesion in EE (41). Removing Ca^++ lowered RT by about 35% over 2 hrs while restoration returned RT to baseline (41). […] Further, resealing was also shown to be dependent on E-cad because it was inhibited by antibodies (HECD-1, DECMA-1) or small synthetic peptides to its extracellular (N-terminal) domain of E-cad, but not by […] antibodies (4A2C7) to its intracellular (C-terminal) domain (41).
E-cadherin is a component of the adherens junction, a structure known to be important in junctional barrier function in most epithelia, including that of the esophagus (36, 41, 121). It is a single-span, transmembrane protein whose carboxy (C)-terminus resides in the cytoplasm and whose amino (N)-terminus resides in the intercellular space. The N-terminus of E-cadherin molecules from membranes of adjacent cells form a barrier by calcium-dependent binding to each other within the intercellular space. Since the protein bridges of E-cadherin both encircle the cell membrane and support the adhesion of the bridging proteins (occludin and claudins) forming the tight junction, they play an integral role in establishing junctional (electrical) resistance and controlling junctional permeability. This role for E-cadherin in (rabbit) EE has recently been shown in the Ussing chamber using the calcium-switch technique (41).

[4] = system: rabbit EE; assay: Junctional opening (RT) of EE by exposure to luminal HCl pH 1.6; assay type: cell-based; details: microtubule stabilizer taxol
[5] = system: cleavage of E-cad in rabbit EE; assay: Acid-activated cleavage of E-cad in Ussing-chambered rabbit EE, W-blot for CTF with C-terminal antibody 4A2C7; assay type: cell-based
[6] = system: esophagitis; details: patients with duodeno-esophageal reflux post-gastrectomy; cited from earlier work
[7] = system: esophagitis; details: rat model of reflux; cited from earlier work
[8] = γ-secretase inhibitor 10 μM, acid-exposed EE

With `C[C@H](CCC(=O)NCCS(=O)(=O)O)[C@H]1CC[C@H]2[C@@H]3[C@H](O)C[C@@H]4C[C@H](O)CC[C@]4(C)[C@H]3C[C@H](O)[C@]12C` [taurocholic acid] as the molecule, how does the “breaks the barrier (RT as marker of PCP)” value ([1]; at pH 2) read?
The value was “barrier breakers”.

For `O=S(=O)(O)CCN1CCN(CCO)CC1` [HEPES], which “luminal acid-induced increase in PCP (reduction in RT)” value ([2]; serosal HEPES) is on record?
Its value is “without preventing the luminal acid-induced increase in PCP”.

And the “luminal acid-induced cell necrosis” value ([2]; serosal buffer replacing bathing solution bicarbonate)?
The value was “prevented”.

With `COc1cc2c(c(OC)c1OC)-c1ccc(OC)c(=O)cc1[C@@H](NC(C)=O)CC2` [colchicine] as the molecule, how does the “junctional resealing during the Ca++-switch technique” value ([3]; microtubule destabilizer) read?
The value was “inhibited”.

For `CC(=O)Nc1ccc(C=Cc2ccc(N=C=S)cc2S(=O)(=O)O)c(S(=O)(=O)O)c1` [SITS, 4-acetoamido-4′-isothiocyanostilbene-2,2′-disulfonic acid], which “cell swelling and necrosis” value ([2]; serosal HCl pH 2.0, serosal pretreatment 4 mM) is on record?
Its value is “prevented”.

With `CC(=O)O[C@H]1C(=O)[C@@]2(C)[C@H]([C@H](OC(=O)c3ccccc3)[C@]3(O)C[C@H](OC(=O)[C@H](O)[C@@H](NC(=O)c4ccccc4)c4ccccc4)C(C)=C1C3(C)C)[C@]1(OC(C)=O)CO[C@@H]1C[C@@H]2O` [taxol] as the molecule, how does the “junctional opening by exposure to luminal pH 1.6” value [4] read?
The value was “inhibit junctional opening”.

What about the “junctional opening by Ca++-free soln” value ([3]; microtubule stabilizer, 50 μM) of the same molecule?
Its value is “inhibited”.

What about the junctional resealing ([3]; taxol, data normalized at the end of junctional opening in Ca++-free solution) of the same molecule?
Its junctional resealing is “Inhibition of resealing”.

With “trypsin: barrier breaker at pH 7.4, can be present within refluxates of near-neutral pH” as the molecule, how does the “breaks the barrier (RT as marker of PCP)” value ([1]; at pH 7.4) read?
The value was “barrier breakers”.

What about the “junctional damage by luminal trypsin (DIS, E-cad cleavage)” value ([1]; luminal exposure) of the same molecule?
The value was “results in both DIS (61) and cleavage of E-cad's extracellular domain”.

With `C=C1[C@@H](C)[C@H]2[C@H](Cc3ccccc3)NC(=O)[C@]23[C@H](OC(C)=O)/C=C/[C@@](C)(O)C(=O)[C@@H](C)C/C=C/[C@H]3[C@@H]1O` [cytochalasin D] as the molecule, how does the “junctional resealing during the Ca++-switch technique” value ([3]; microfilament destabilizer, 2 uM) read?
The value was “inhibited”.

With `CNC(=O)[C@@H](NC(=O)[C@H](CC(C)C)[C@H](O)C(=O)NO)C(C)(C)C` [Marimastat] as the molecule, how does the “cleavage of E-cad” value ([5]; Marimastat 10 μM, luminal HCl pH 1.1 for 30 min or serosal HCl pH 2.0 for 5 min) read?
The value was “blocked; also recorded: abolition”.

With `CCO` [alcohol] as the molecule, how does the “breaks the barrier (RT as marker of PCP)” value ([1]; at pH 7.4) read?
The value was “barrier breakers”.

Which esophagitis [6] does the source give for `CN(C)C(=O)COC(=O)Cc1ccc(OC(=O)c2ccc(NC(=N)N)cc2)cc1` [camostat mesilate] here?
The esophagitis was “reduce esophagitis”.

And the esophagitis [7]?
Its esophagitis is “reduce esophagitis”.

For `C[C@H](NC(=O)Cc1cc(F)cc(F)c1)C(=O)N[C@H](C(=O)OC(C)(C)C)c1ccccc1` [DAPT75, DAPT], which “cleavage of E-cad” value [5, 8] is on record?
The value was “did not block cleavage”.

And the “pattern of E-cad cleavage (CTFs on W-blot)” value [5, 8]?
The value was “yielding two CTFs instead of one”.
